Marks after values point to notes of the source that are not given here.
Experiments:
[1] = target: T1, PPARγ (Homo sapiens, UniProt P37231); experiment: Commercial PPARγ binding assay (Invitrogen, PPAR-LBD/Fluormone PPAR Green complex); details: for PPARγ binding signal (fluorescence polarization, Fluormone PPAR Green displacement): mean of three experiments; for Binding to PPARγ (in words): referring to FIG. 1 and Table B
T1 construct: purchased Invitrogen Corporation, Carlsbad, Calif
T1 sequence (P37231 238-503 limits assumed): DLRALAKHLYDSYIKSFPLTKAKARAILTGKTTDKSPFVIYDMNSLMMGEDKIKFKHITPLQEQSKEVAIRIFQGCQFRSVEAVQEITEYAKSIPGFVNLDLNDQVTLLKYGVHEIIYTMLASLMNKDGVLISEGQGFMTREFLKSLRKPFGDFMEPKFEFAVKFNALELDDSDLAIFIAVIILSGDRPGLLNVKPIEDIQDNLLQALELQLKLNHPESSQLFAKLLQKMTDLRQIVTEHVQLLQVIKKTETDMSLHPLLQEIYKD
Description: The ability of several exemplary compounds of the present invention, shown in Table A, to bind to PPARγ was measured using a commercial binding assay (Invitrogen Corporation, Carlsbad, Calif.) that measures the test compounds ability to bind with PPAR-LBD/Fluormone PPAR Green complex. These assays were performed on three occasions with each assay using four separate wells (quadruplicate) at each concentration of tested compound. The data are mean and SEM of the values obtained from the three experiments. […] Compounds were added at the concentrations shown, which range from 0.1-100 micromolar.

[2] = tested on: Diabetic KKAy mice; experiment: Glucose, insulin and triglyceride in diabetic KKAy mice, 4 days oral dosing; assay type: in vivo; details: for Glucose / Insulin / Triglycerides: 93 mg/kg orally for 4 days, fasted, blood approx. 18 hours after last dose, mean and SEM; for Effectiveness at lowering glucose, insulin and triglyceride levels / antidiabetic activity (in words): Table C
Description: The insulin sensitizing and antidiabetic pharmacology are measured in the KKA^Y mice as previously reported [Hofmann, C., Lomez, K., and Colca, J. R. (1991). Glucose transport deficiency corrected by treatment with the oral anti-hyperglycemic agent Pioglitazone. Endocrinology, 129:1915-1925.]. Compounds are formulated in 1% sodium carboxy methylcellulose, and 0.01% tween 20 and dosed daily by oral gavage.
Compounds were formulated by suspension and orally dosed to KKAy mice at 93 mg/kg for 4 days. The compounds were first dissolved in DMSO and then placed into aqueous suspension containing 7-10% DMSO, 1% sodium methylcarboxycellulose, and 0.01% Tween 20. On the fifth day, the mice were fasted and blood samples were obtained approximately 18 hours after the last dose. The parameters were measured by standard assay methods. Data are mean and SEM N=6-12 mice.

Row | Compound | PPARγ binding signal (fluorescence polarization, Fluormone PPAR Green displacement) ([1]; 1 μM compound) | PPARγ binding signal (fluorescence polarization, Fluormone PPAR Green displacement) ([1]; 3 μM compound) | PPARγ binding signal (fluorescence polarization, Fluormone PPAR Green displacement) ([1]; 10 μM compound) | PPARγ binding signal (fluorescence polarization, Fluormone PPAR Green displacement) ([1]; 50 μM compound) | PPARγ binding signal (fluorescence polarization, Fluormone PPAR Green displacement) ([1]; 100 μM compound) | PPARγ binding signal (fluorescence polarization, Fluormone PPAR Green displacement) ([1]; .1 μM compound) | PPARγ binding signal (fluorescence polarization, Fluormone PPAR Green displacement) ([1]; .3 μM compound) | Glucose ([2]; N=6-12) | Insulin ([2]; N=6-12) | Triglycerides ([2]; N=6-12) | Effectiveness at lowering glucose, insulin and triglyceride levels / antidiabetic activity (in words) [2] | Binding to PPARγ (in words) [1] | Glucose ([2]; N=6-12, 93 mg/kg) [mg/dL] | Insulin ([2]; N=6-12, 93 mg/kg) [ng/mL] | Triglycerides ([2]; N=6-12, 93 mg/kg) [mg/dL]
1 | CCc1ccc(CCOc2ccc(CC3(C)SC(=O)NC3=O)cc2)nc1 (single isomer, unassigned) [Compound 4] | 234 | 224 | 200 | 122 | 91 | 236 | 230 | – | – | – | – | – | – | – | –
2 | CCc1ccc([C@H](O)COc2ccc(CC3SC(=O)NC3=O)cc2)nc1 (stereo partly shown) [Compound 3] | 203 | 185 | 134 | 88 | 77 | 226 | 221 | 388 +/− 38* mg/dl | 7.2 +/− 1.9* ng/ml | 148 +/− 23* mg/dl | equivalent antidiabetic activity | – | – | – | –
3 | CCc1ccc(CCOc2ccc(CC3(C)SC(=O)NC3=O)cc2)nc1 (single isomer, unassigned) [Compound 6] | 233 | 223 | 198 | 126 | 99 | 246 | 246 | – | – | – | not as effective as compounds 1 and 2 | better PPARγ binding compounds | 694 ± 63 | 11.1 ± 1.6 | 298 ± 49
4 | CCc1ccc(C(=CCO)COc2ccc(CC3SC(=O)NC3=O)cc2)nc1 (stereo not shown) [Compound 13] | 229 | 230 | 204 | 148 | 108 | 244 | 243 | – | – | – | – | – | – | – | –
5 | CCc1ccc(C(COc2ccc(CC3SC(=O)NC3=O)cc2)CC(=O)OC)nc1 (stereo not shown) [Compound 12] | 198 | 155 | 112 | 80 | 85 | 243 | 222 | – | – | – | – | – | – | – | –
6 | CCc1ccc([C@H](O)COc2ccc(CC3(C)SC(=O)NC3=O)cc2)nc1 (stereo partly shown) [Compound 9] | 239 | 233 | 234 | 189 | 164 | 237 | 237 | 740 ± 37 mg/dL | 14.8 ± 2.5 ng/mL | 354 ± 43 mg/dL | – | – | – | – | –
7 | CCc1ccc(C(=O)COc2ccc(CC3(C)SC(=O)NC3=O)cc2)nc1 (stereo not shown) [Compound 10] | 240 | 234 | 219 | 126 | 93 | 245 | 239 | – | – | – | – | – | – | – | –
8 | CCc1ccc(C(=CC(=O)OC)COc2ccc(CC3SC(=O)NC3=O)cc2)nc1 (stereo not shown) [Compound 11] | 232 | 229 | 165 | 128 | 78 | 230 | 227 | 662 ± 40 mg/dL | 18.9 ± 1.6 ng/mL | 476 ± 106 mg/dL | – | – | – | – | –
9 | CCc1ccc(CCOc2ccc(CC3(C)SC(=O)NC3=O)cc2)nc1 (single isomer, unassigned) [Compound 7] | 248 | 237 | 210 | 144 | 105 | 249 | 246 | – | – | – | not as effective as compounds 1 and 2 | better PPARγ binding compounds | 631 ± 7 | 16.3 ± 1.2 | 374 ± 15
10 | CCc1ccc(C(O)COc2ccc(CC3(C)SC(=O)NC3=O)cc2)nc1 (stereo not shown) [Compound 5] | 228 | 226 | 212 | 132 | 106 | 235 | 230 | – | – | – | – | – | – | – | –
11 | CCc1ccc([C@@H](O)COc2ccc(CC3(C)SC(=O)NC3=O)cc2)nc1 (stereo partly shown) [Compound 8] | 239 | 241 | 233 | 199 | 186 | 237 | 243 | 756 ± 31 mg/dL | 12.8 ± 2.6 ng/mL | 465 ± 64 mg/dL | – | – | – | – | –
